Legend:
[1] = Body weights of C3 tumour mice during EPA treatment; type: in vivo; settings: all with mCPA (PO), oral EPA given with DPX-FP
Experimental: Mice (n=8 per group) were implanted with C3 cancer cells on study day 0. Mice in all treatment groups were treated with 0.4 mg metronomic cyclophosphamide (mCPA) daily for seven days through drinking water starting on study day 7 and 21 (oral administration: PO). One group was untreated as a control. One treatment group was treated with epacadostat (EPA) through oral gavage 6 mg/day for five days starting on study day 14 for a total EPA dose of 30 mg over 5 days. Mice were treated with a composition of the invention (DPX) containing either FP alone (DPX-FP) or FP in combination with EPA (DPX-FP/EPA, 1 mg EPA). DPX was administered by subcutaneous injection to the treatment groups on study day 14 and 28, for a total EPA dose of 2mg over […] in the group receiving DPX-FP/EPA. The DPX compositions were prepared according to the methods detailed in Example 1. All DPX-FP and DPX-FP/EPA formulations contained 20 micrograms of DNA based PolyI:C polynucleotide adjuvant. The freeze-dried vials were reconstituted in 0.7 mL of Montanide® ISA 51 VG (SEPPIC, France) to obtain a clear solution (FIG. 1; Panel D).

[2] = AlexaFluor488 (AF488) positive cells in LN, blood, liver, spleen by flow cytometry; type: in vivo, C57B1/6 mice
Experimental: (§1) C57B1/6 mice (n=2-3 per time point) were injected subcutaneously on study day 0 with 0.1 mg of AlexaFluor488 hydrazide (AF488) dye formulated either in a composition of the invention (DPX, group 1) or in an aqueous solution (group 2). Control groups were injected subcutaneously with DPX not containing AF488 (group 3) or not given an injection (group 4). DPX compositions were prepared according to the methods detailed in Example 1. The freeze-dried vial was reconstituted in Montanide® ISA 51 VG (SEPPIC, France). Cells were collected from the vaccine-draining lymph nodes (LN), blood, liver, and spleen from 2-3 mice of each group on study days 1, 2, 5, and 7, and the cells were stained to detect different cell populations by flow cytometry.
AF488 (MW 773.91 g/mol) is a membrane impermeant fluorescent dye that can be actively internalized by phagocytic cells, such as macrophages and dendritic cells.

[3] = Photographs of plasma, skin and draining lymph node after EVB injection; type: in vivo, C57B1/6 mice
Experimental: as §1, with “(n=3” for “(n=2-3”, “1” for “0.1”, “Evans Blue (EVB)” for “AlexaFluor488 hydrazide (AF488)”, “EVB” for “AF488”

[4] = Evans Blue (EVB) positive cells in LN, blood, liver, spleen by flow cytometry; type: in vivo, C57B1/6 mice
Experimental: as §1, with “(n=3” for “(n=2-3”, “1” for “0.1”, “Evans Blue (EVB)” for “AlexaFluor488 hydrazide (AF488)”, “EVB” for “AF488”
EVB (MW 960.81 g/mol) is a membrane impermeant dye with high affinity for serum albumin that can penetrate into non-viable cells or be actively internalized by phagocytic cells, such as macrophages and dendritic cells.

lymph node cells = type: in vivo, C57BL/6 mice; settings: group E: 20 mg/kg/day CPA in drinking water for seven days before FP/PolyI:C composition; vs group F
Experimental: Pathogen free, C57BL/6 mice, 6-8 weeks of age, were purchased from Charles River Laboratories (St. Constant, PQ) and housed according to institutional guidelines with water and food ad libitum under filter controlled air circulation.
(§2) Mice in group A (n=5) were injected in the right flank with 50 microliters of the CPA composition containing 0.04 milligrams of CPA and injected in the left flank with 50 microliters of the FP/DNA based PolyI:C polynucleotide composition containing 10 micrograms of FP and 20 micrograms of DNA based polyl:C polynucleotide adjuvant.
as §2, with “group B” for “group A”, “containing 0.4” for “containing 0.04”
Mice in group C (n=5) were injected in the right flank with 50 microliters of the CPA/FP/PolyI:C composition containing 0.04 milligrams of CPA and 10 micrograms of FP and 20 micrograms of DNA based polyI:C polynucleotide adjuvant.
Mice in group D (n=5) were injected in the right flank with 50 microliters of the CPA/FP/PolyI:C composition containing 0.4 milligrams of CPA and 10 micrograms of FP and 20 micrograms of DNA based polyI:C polynucleotide adjuvant. […]

[5] = 0.1 mg AF488 s.c., days 1, 2, 5, 7, significance compared to group 3
[6] = 1 mg EVB s.c., days 1, 2, 5, 7, significance compared to group 3
[7] = by day 2, including CD3+ T cells

Compound: NS(=O)(=O)NCCNc1nonc1C(=NO)Nc1ccc(F)c(Br)c1 [oral EPA (PO), epacadostat]
- weight loss during treatment (body weights) [1]: significant weight loss during treatment

Compound: AlexaFluor488 hydrazide [AF488 in aqueous solution]
- AF488 release into the blood (FIGS. 11D-F) ([2]; 0.1 mg AF488 s.c.): quickly peaked at day 1
- release of AF488 into the spleen (FIGS. 11G-I) ([2]; 0.1 mg AF488 s.c.): rapid and significant release of AF488 into the spleen in all cell types
- AF488+ CD11b+ cells in the LN (FIG. 11A) [2, 5]: significant number of AF488^+CD11b^+ cells on days 1 and 2
- AF488+ CD11b+ cells in the blood (FIG. 11D) [2, 5]: significant number of AF488^+ CD11b^+ cells on days 1 and 2
- AF488+ T cells in the LN (FIG. 11C) [2, 5]: significant number of AF488^+ T cells on day 1
- AF488+ T cells in the blood (FIG. 11F) [2, 5]: significant number of AF488^+ T cells on days 1 and 2
- AF488+ T cells in the liver (FIG. 11I) [2, 5]: significant number of AF488^+ T cells on all days collected
- AF488+ dendritic cells in the LN (FIG. 11B) [2, 5]: significant number of AF488^+ dendritic cells on day 1
- AF488+ dendritic cells in the blood (FIG. 11E) [2, 5]: significant number of AF488^+ dendritic cells on days 1 and 2
- AF488+ dendritic cells in the liver (FIG. 11H) [2, 5]: significant number of AF488^+ dendritic cells on days 1, 2, and 5
- AF488+ monocytes in the liver (FIG. 11G) [2, 5]: significant number of AF488^+ monocytes on days 1, 2, and 5
- AF488 release into and clearance from the LN (FIGS. 11A-C) ([2]; 0.1 mg AF488 s.c., days 1 to 7): quickly peaked at day 1 and AF488 was cleared by day 5-7
- circulating CD11b+ cells being AF488+ ([2]; blood, days 1-2): over 70%

Compound: Cc1cc(-c2ccc(/N=N/c3ccc4c(S(=O)(=O)O)cc(S(=O)(=O)O)c(N)c4c3O)c(C)c2)ccc1/N=N/c1ccc2c(S(=O)(=O)O)cc(S(=O)(=O)O)c(N)c2c1O [EVB in aqueous solution, Evans Blue]
- blue colouration of skin, injection site and draining LN (FIG. 13) ([3]; 1 mg EVB s.c.): turned blue
- colour of plasma (FIG. 12) ([3]; days 1, 2, 5, and 7 after injection): dark blue
- EVB+ CD11c+ dendritic cells in the liver ([4]; 1 mg EVB s.c.): a large number dendritic cells were EVB+ by day 2
- EVB+ CD11b+ cells in the LN (FIG. 10A) [4, 6]: significant number of EVB^+ CD11b^+ cells on all days tested
- EVB+ CD11b+ cells in the blood (FIG. 10D) [4, 6]: significant number of EVB^+ CD11b^+ cells on all days tested
- EVB+ CD11b+ cells in the liver (FIG. 10G) [4, 6]: significant number of EVB^+ CD11b^+ cells on all days tested
- EVB+ CD11b+ cells in the spleen (FIG. 10J) [4, 6]: significant number of EVB^+ CD11b^+ cells on all days tested
- EVB+ T cells in the LN (FIG. 10C) [4, 6]: significant number of EVB^+ T cells on all days tested
- EVB+ T cells in the blood (FIG. 10F) [4, 6]: significant number of EVB^+ T cells on all days tested
- EVB+ T cells in the liver (FIG. 10I) [4, 6]: significant number of EVB^+ T cells on all days tested
- EVB+ T cells in the spleen (FIG. 10L) [4, 6]: significant number of EVB^+ T cells on all days tested
- EVB+ dendritic cells in the LN (FIG. 10B) [4, 6]: significant number of EVB^+ dendritic cells on all days tested
- EVB+ dendritic cells in the blood (FIG. 10E) [4, 6]: significant number of EVB^+dendritic cells on all days tested
- EVB+ dendritic cells in the liver (FIG. 10H) [4, 6]: significant number of EVB^+ dendritic cells on days 2 and 7
- EVB+ dendritic cells in the spleen (FIG. 10K) [4, 6]: significant number of EVB^+dendritic cells on all days tested
- EVB release into and clearance from the LN (FIGS. 10A-C) ([4]; 1 mg EVB s.c., days 1 to 7): had still not been cleared from the LN by day 7
- EVB release into and clearance from the blood (FIGS. 10D-F) ([4]; 1 mg EVB s.c., days 1 to 7): still not been cleared from the blood by day 7
- EVB release into and clearance from the spleen (FIGS. 10J-L) ([4]; 1 mg EVB s.c., days 1 to 7): still saturated in CD11b+ macrophages and T cells by day 7
- saturation of cell types in the blood with EVB ([4]; 1 mg EVB s.c., days 1 to 7): CD11b+ macrophages and CD3+ T cells that were still nearly saturated on day 7
- macrophages and T cells EVB+ in the liver ([4]; by day 1-2): ~100%
- cells EVB+ in the spleen ([4]; by day 1-2, including CD3+ T cells): ~100%
- cells EVB+ in the LN [4, 7]: ~100%
- cells EVB+ in the blood [4, 7]: ~100%

Compound: O=P1(N(CCCl)CCCl)NCCCO1 (centres unmarked) [CPA, N,N-bis(2-chloroethyl)-1,3,2-oxazaphosphinan-2-amine 2-oxide]
- total lymph node cell counts (lymph node cells): significantly lower cell counts compared to group F

Source: patent publication US20210147544A1, “METHODS AND COMPOSITIONS FOR TARGETED DELIVERY OF ACTIVE AGENTS AND IMMUNOMODULATORY AGENTS TO LYMPH NODES” (IMMUNOVACCINE TECHNOLOGIES INC., priority 2018, published 2021)
